The values that follow come from patent publication US20210346665A1, “CONDUCTIVE MICRONEEDLE PATCH FOR ACTIVE AGENT DELIVERY” (Singapore Health Services Pte Ltd, priority 2018, published 2021).

Where a name gives a salt, the structure may show the parent alone.

This data set in a line: drug loading and release from MeHA MN patches in PBS. In kind it is physicochemical. As for the experimental part:
The drug loading capabilities of MeHA MNs was investigated by using model drugs of different molecular weights, mainly fluorescein isothiocyanate (FITC), FITC-Dextran and doxorubicin hydrochloride (Dox). The innate ability of the MeHA MN arrays to absorb fluid is taken advantage of to load the drug molecules into the MN tips. All three drugs are dissolved in PBS which were then used to equilibrate MeHA MN patches. After 10 minutes of incubation with the drug solution, the MNs were left to dry in the fumehood (FIG. 14). The amount of drug encapsulated in the MN was determined by immersing the drug loaded MeHA in 1×PBS. By obtaining a 50 μL of the solution at various time points, the fluorescence intensity was measured to determine the drug release profile of the three different drug molecules.
Next, the release profiles of drugs from the MeHA MN patches were examined.

For the molecule `COc1cccc2c1C(=O)c1c(O)c3c(c(O)c1C2=O)C[C@@](O)(C(=O)CO)C[C@@H]3O[C@H]1C[C@H](N)[C@H](O)[C@H](C)O1` [Dox, doxorubicin hydrochloride], where the note is “MeHA MN patches, 1×PBS, within 30 minutes”, the “released from the MN patches” value is 50%.

As to fluorescein isothiocyanate [FITC], the “loading into the MN tips through swelling” value (MeHA MN, 10 minutes incubation with drug solution in PBS) was “easily loaded”.
